According to BindingDB's records for doi:10.1074/jbc.M114.556480 (Yale University, 2014):
Non-standard residues stand in square brackets, D forms with d. Residues, ends and D or L forms follow the SMILES beside them. pY = N[C@@H](Cc1ccc(OP(=O)(O)O)cc1)C(=O)O

target: T1, Tyrosine-protein kinase ABL1 [131-238] (Human, UniProt P00519); test: Fluorescence Polarization Assay; settings: pH 7.25
T1 construct: 131-238
T1 sequence (P00519 whole entry): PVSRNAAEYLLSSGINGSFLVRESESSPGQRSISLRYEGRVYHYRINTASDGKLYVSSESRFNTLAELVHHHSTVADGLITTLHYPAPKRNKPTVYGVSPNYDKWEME
Method: SH2 domains were dialyzed into binding buffer (50 mM Hepes, pH 7.25, 150 mM NaCl, 0.01% Nonidet P-40, 5% glycerol) and a 30-μl volume serially diluted into pre-chilled 384-well low flange black flat bottom non-binding microplates (Corning) while on ice. 5 μl of 35 nM fluorescent peptide dissolved in binding buffer was added to each well (final concentration 5 nM), mixed 5 times by pipetting, and plates were incubated at 4 °C for 40 min. Fluorescence polarization experiments were performed with an Analyst AD (Molecular Devices, Sunnyvale, CA) spectrofluorimeter. Each well was excited using 485 nm light and emission was read at 530 nm. Fluorescence polarization was measured 1 mm from the bottom of each well with an integration time of 560 ms. All experiments were conducted in triplicate.

| Kd | Compound |
| --- | --- |
| > 61.9 µM | C[C@@H](O)[C@H](NC(=O)[C@H](CC(=O)O)NC(=O)[C@H](CC(=O)O)NC(=O)[C@@H](N)CCC(=O)O)C(=O)N[C@@H](Cc1ccc(OP(=O)(O)O)cc1)C(=O)N[C@@H](CC(=O)O)C(=O)NCC(=O)N[C@@H](Cc1ccc(O)cc1)C(=O)N[C@@H](CCC(=O)O)C(=O)O [EDDTpYDGYE] (H-EDDT[pY]DGYE-OH) |
| 3.27 µM | CC(C)[C@H](NC(=O)[C@@H]1CCCN1C(=O)[C@H](CCC(=O)O)NC(=O)[C@@H](N)CO)C(=O)N[C@@H](Cc1ccc(OP(=O)(O)O)cc1)C(=O)N[C@@H](CCC(=O)O)C(=O)N[C@H](C(=O)N[C@H](C(=O)N[C@@H](CCC(=O)O)C(=O)O)[C@@H](C)O)[C@@H](C)O [SEPVpYETTE] (H-SEPV[pY]ETTE-OH) |
| 3.33 µM | CC[C@H](C)[C@H](NC(=O)[C@@H]1CCCN1C(=O)[C@H](CO)NC(=O)[C@@H](N)CO)C(=O)N[C@@H](Cc1ccc(OP(=O)(O)O)cc1)C(=O)N[C@@H](CCC(=O)O)C(=O)N[C@@H](CC(=O)O)C(=O)N[C@@H](C)C(=O)N[C@@H](C)C(=O)O [SSPIpYEDAA] (H-SSPI[pY]EDAA-OH) |
